Source: US20230054926A1, “COMPOSITIONS AND METHODS FOR MICROBIAL TREATMENT OF SKIN DISORDERS” (DUPONT US HOLDING, LLC, priority 2020, published 2023)

Test system: M. globosa
Assay: Flow cytometry analysis of M. globosa growth inhibition by cell free fermentate
Format: cell-based, Malassezia globosa
Conditions: Example 6, 200 μl supernatant + 800 μl diluted culture, vs respective media control, amphotericin B 2.5 μg/ml
Description: The growth medium for Malassezia species was a modified Leeming & Notman (mLN) media that contained 10 g/L bacteriological peptone, 2 g/L yeast extract, 8 g/L desiccated ox bile, 10 ml/L glycerol, 0.5 g/L glycerol monostearate, 5 ml/L Tween-60 and 20 ml/L palm oil.
Lipid emulsion by the presence of lipids and surfactants in the mLN media as well as cell clumping phenotype of Malassezia spp, make it difficult to monitor cell growth by optical density measurement or colony counting after spreading a culture aliquot on plates, To circumvent this issue, flow cytometry with cell staining dyes was used to quantitatively measure cell growth in lipid emulsion media. […]
At different time points, 50 μl aliquot from each culture was subjected to mild sonication with amplitude of 5 and 1 sec on/off cycle for 30 sec using Qsonica 0700 (Qsonica, Newtown, Conn.). […] The samples were analyzed by flow cytometry using a Novocyte Quanteon (Asea). SytoBC, a cell permeable DNA/RNA intercalating dye was excited by the 488 laser and detected using a 530/30 bandwidth filter. Concanavalin A, a mannose binding lectin labeled with alexaFluor 640, was excited with the 637 nm laser and detected using a 660/20 bandwidth filter. […] Malassezia cell counts were determined by gating on high sytoBC, high ConA events and recording the event/ul values for each sample. […]

SMILES: C[C@@H]1[C@H](O)[C@@H](C)/C=C/C=C/C=C/C=C/C=C/C=C/C=C/[C@H](O[C@@H]2O[C@H](C)[C@@H](O)[C@H](N)[C@@H]2O)C[C@@H]2O[C@](O)(C[C@@H](O)C[C@@H](O)[C@H](O)CC[C@@H](O)C[C@@H](O)CC(=O)O[C@H]1C)C[C@H](O)[C@H]2C(=O)O [Amphotericin B, amphotericin B]
- % M. globosa growth inhibition (Day 1): 4%
- % M. globosa growth inhibition (Day 3): 88%
